Measured values from US6667387B1, “HCV core peptides” (priority 1992, dated 2003).
Ends that are not written are not given here.

Key:
[1] = system: antibodies in sera from HCV-seropositive donors; test: ELISA with HCV antibody-positive sera (biotinylated peptides on streptavidin- or avidin-coated plates, unbiotinylated peptides coated directly); assay type: binding, human; conditions: for PEPTIDE ELISA (O.D.): Table 12, biotinylated 20-mers
How it was run: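 Peptides coated either directly at 2–5 or 3 μg/ml in carbonate buffer pH 9.6, or biotinylated at 1 μg/ml on streptavidin-coated wells (3 μg/ml). Plates casein-blocked, then human sera (1:100 or 1:20) incubated 1 h at 37° C. Bound antibody detected with HRP anti-human Ig/TMB, read as OD450.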

[2] = ELISA with seronegative / negative control sera (specificity); assay type: binding, human
How it was run: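 Specificity readout is OD at 450 nm (HRP goat anti-human Ig, TMB/H2O2, sulfuric acid stop), with ≥0.250 counted positive. Seronegative donor sera (typically 1:100, 1 h, 37° C) were applied to casein-blocked wells coated with peptide directly or via streptavidin capture of biotinylated peptide.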

In the case of IIPDREVLYREFDEMEECSQ, the “optical density (450 nm)” value ([1]; Table 4F, serum 8315, 20-fold dilution) was 2.672, the “optical density (450 nm)” value ([1]; Table 4F, serum 8316, 20-fold dilution) was 0.367 and the “optical density (450 nm)” value ([1]; Table 4F, serum 8317, 20-fold dilution) was 1.634. For the same sequence, the “optical density (450 nm)” value ([1]; Table 4F, serum 8318, 20-fold dilution) was 2.431, the “optical density (450 nm)” value ([1]; Table 4F, serum 8320, 20-fold dilution) was 0.896 and the “optical density (450 nm)” value ([1]; Table 4F, serum 8321, 20-fold dilution) was 0.457. For the same sequence, the “optical density (450 nm)” value ([1]; Table 4F, serum 8326, 20-fold dilution) was 2.540, the “optical density (450 nm)” value ([1]; Table 5, sample 8242 (positive), peptide concentration 0.01 micrograms per milliliter, listed as HCV peptide IX) was 0.215 and the “optical density (450 nm)” value ([1]; Table 5, sample 8242 (positive), peptide concentration 0.03 micrograms per milliliter, listed as HCV peptide IX) was 0.496. The “optical density (450 nm)” value ([1]; Table 5, sample 8242 (positive), peptide concentration 0.1 micrograms per milliliter, listed as HCV peptide IX) was 0.911, the “optical density (450 nm)” value ([1]; Table 5, sample 8242 (positive), peptide concentration 0.3 micrograms per milliliter, listed as HCV peptide IX) was 0.795 and the “optical density (450 nm)” value ([1]; Table 5, sample 8242 (positive), peptide concentration 1.0 micrograms per milliliter, listed as HCV peptide IX) was 0.777. The “optical density (450 nm)” value ([1]; Table 5, sample 8242 (positive), peptide concentration 3.0 micrograms per milliliter, listed as HCV peptide IX) was 0.791, the “optical density (450 nm)” value ([1]; Table 5, sample 8243 (positive), peptide concentration 0.01 micrograms per milliliter, listed as HCV peptide IX) was 0.639 and the “optical density (450 nm)” value ([1]; Table 5, sample 8243 (positive), peptide concentration 0.03 micrograms per milliliter, listed as HCV peptide IX) was 1.421. The “optical density (450 nm)” value ([1]; Table 5, sample 8243 (positive), peptide concentration 0.1 micrograms per milliliter, listed as HCV peptide IX) was 1.834, the “optical density (450 nm)” value ([1]; Table 5, sample 8243 (positive), peptide concentration 0.3 micrograms per milliliter, listed as HCV peptide IX) was 1.892 and the “optical density (450 nm)” value ([1]; Table 5, sample 8243 (positive), peptide concentration 1.0 micrograms per milliliter, listed as HCV peptide IX) was 1.953. For the same sequence, the “optical density (450 nm)” value ([1]; Table 5, sample 8243 (positive), peptide concentration 3.0 micrograms per milliliter, listed as HCV peptide IX) was 1.959, the “optical density (450 nm)” value ([1]; Table 5, sample 8320 (positive), peptide concentration 0.01 micrograms per milliliter, listed as HCV peptide IX) was 0.461 and the “optical density (450 nm)” value ([1]; Table 5, sample 8320 (positive), peptide concentration 0.03 micrograms per milliliter, listed as HCV peptide IX) was 1.007. For the same sequence, the “optical density (450 nm)” value ([1]; Table 5, sample 8320 (positive), peptide concentration 0.1 micrograms per milliliter, listed as HCV peptide IX) was 1.244, the “optical density (450 nm)” value ([1]; Table 5, sample 8320 (positive), peptide concentration 0.3 micrograms per milliliter, listed as HCV peptide IX) was 1.798 and the “optical density (450 nm)” value ([1]; Table 5, sample 8320 (positive), peptide concentration 1.0 micrograms per milliliter, listed as HCV peptide IX) was 0.802. The “optical density (450 nm)” value ([1]; Table 5, sample 8320 (positive), peptide concentration 3.0 micrograms per milliliter, listed as HCV peptide IX) was 1.779, the “optical density (450 nm)” value ([1]; Table 5, sample 8326 (positive), peptide concentration 0.01 micrograms per milliliter, listed as HCV peptide IX) was 1.812 and the “optical density (450 nm)” value ([1]; Table 5, sample 8326 (positive), peptide concentration 0.03 micrograms per milliliter, listed as HCV peptide IX) was 2.193. For the same sequence, the “optical density (450 nm)” value ([1]; Table 5, sample 8326 (positive), peptide concentration 0.1 micrograms per milliliter, listed as HCV peptide IX) was 2.284, the “optical density (450 nm)” value ([1]; Table 5, sample 8326 (positive), peptide concentration 0.3 micrograms per milliliter, listed as HCV peptide IX) was 2.271 and the “optical density (450 nm)” value ([1]; Table 5, sample 8326 (positive), peptide concentration 1.0 micrograms per milliliter, listed as HCV peptide IX) was 2.271. For the same sequence, the “optical density (450 nm)” value ([1]; Table 5, sample 8326 (positive), peptide concentration 3.0 micrograms per milliliter, listed as HCV peptide IX) was 2.284, the “optical density (450 nm)” value ([1]; Table 8, serum 8243 (HCV), Avidin) was 1.213 and the “optical density (450 nm)” value ([1]; Table 8, serum 8247 (HCV), Avidin) was 0.756. The “optical density (450 nm)” value ([1]; Table 8, serum 8248 (HCV), Avidin) was 0.047, the “optical density (450 nm)” value ([1]; Table 8, serum 8269 (HCV), Avidin) was 0.051 and the “optical density (450 nm)” value ([1]; Table 8, serum 8273 (HCV), Avidin) was 0.053. The “optical density (450 nm)” value ([1]; Table 8, serum 8278 (HCV), Avidin) was 0.074, the “optical density (450 nm)” value ([1]; Table 8, serum 8285 (HCV), Avidin) was 0.270 and the “optical density (450 nm)” value ([1]; Table 8, serum 8290 (HCV), Avidin) was 0.048. For the same sequence, the “optical density (450 nm)” value ([1]; Table 8, serum 8291 (HCV), Avidin) was 0.052, the “PEPTIDE ELISA (O.D.)” value ([1]; serum 0843) was 2.206 and the “PEPTIDE ELISA (O.D.)” value ([1]; serum 8240) was 0.142. For the same sequence, the “PEPTIDE ELISA (O.D.)” value ([1]; serum 8241) was 0.421, the “PEPTIDE ELISA (O.D.)” value ([1]; serum 8242) was 2.114 and the “PEPTIDE ELISA (O.D.)” value ([1]; serum 8332) was 0.392. For the same sequence, the “PEPTIDE ELISA (O.D.)” value ([1]; serum 8339) was 2.497, the “PEPTIDE ELISA (O.D.)” value ([1]; serum 8350) was 1.779 and the “PEPTIDE ELISA (O.D.)” value ([1]; serum 8377) was 2.360. For the same sequence, the “PEPTIDE ELISA (O.D.)” value ([1]; serum 8378) was 1.859, the “PEPTIDE ELISA (O.D.)” value ([1]; serum 8388) was 2.300 and the “antibody binding to the 20-mers” value ([1]; serum 8241) was “very strong”. For the same sequence, the “optical density (450 nm)” value ([2]; Table 4F, negative serum) was 0.005, the “optical density (450 nm)” value ([2]; Table 5, sample 1747 (negative), peptide concentration 0.01 micrograms per milliliter, listed as HCV peptide IX) was 0.043 and the “optical density (450 nm)” value ([2]; Table 5, sample 1747 (negative), peptide concentration 0.03 micrograms per milliliter, listed as HCV peptide IX) was 0.044. For the same sequence, the “optical density (450 nm)” value ([2]; Table 5, sample 1747 (negative), peptide concentration 0.1 micrograms per milliliter, listed as HCV peptide IX) was 0.042, the “optical density (450 nm)” value ([2]; Table 5, sample 1747 (negative), peptide concentration 0.3 micrograms per milliliter, listed as HCV peptide IX) was 0.046 and the “optical density (450 nm)” value ([2]; Table 5, sample 1747 (negative), peptide concentration 1.0 micrograms per milliliter, listed as HCV peptide IX) was 0.049. The “optical density (450 nm)” value ([2]; Table 5, sample 1747 (negative), peptide concentration 3.0 micrograms per milliliter, listed as HCV peptide IX) was 0.051, the “optical density (450 nm)” value ([2]; Table 5, sample 1781 (negative), peptide concentration 0.01 micrograms per milliliter, listed as HCV peptide IX) was 0.049 and the “optical density (450 nm)” value ([2]; Table 5, sample 1781 (negative), peptide concentration 0.03 micrograms per milliliter, listed as HCV peptide IX) was 0.048. For the same sequence, the “optical density (450 nm)” value ([2]; Table 5, sample 1781 (negative), peptide concentration 0.1 micrograms per milliliter, listed as HCV peptide IX) was 0.047, the “optical density (450 nm)” value ([2]; Table 5, sample 1781 (negative), peptide concentration 0.3 micrograms per milliliter) was 0.051 and the “optical density (450 nm)” value ([2]; Table 5, sample 1781 (negative), peptide concentration 1.0 micrograms per milliliter, listed as HCV peptide IX) was 0.051. The “optical density (450 nm)” value ([2]; Table 5, sample 1781 (negative), peptide concentration 3.0 micrograms per milliliter) was 0.053, the “optical density (450 nm)” value ([2]; Table 8, serum 1782 (blood donor), Avidin) was 0.062 and the “optical density (450 nm)” value ([2]; Table 8, serum 1784 (blood donor), Avidin) was 0.050. For the same sequence, the “optical density (450 nm)” value ([2]; Table 8, serum 1785 (blood donor), Avidin) was 0.050 and the “optical density (450 nm)” value ([2]; Table 8, serum 1794 (blood donor), Avidin) was 0.098.
